Data reported in patent publication US9693556B2, “Herbicidal pyridazinone derivatives” (SYNGENTA LIMITED, priority 2011, dated 2017).

Columns and labels:
Format in all cases: in vivo
[1] = tested on: Alopecurus myosuroides (ALOMY); assay: Post-emergence herbicidal glasshouse test on Alopecurus myosuroides; conditions: post-emergence; 1000 g/h; evaluated after 13 days
How it was run: (§1)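 Pre-emergence treatment came one day after sowing, post-emergence treatment after eight days' growth; both used 1000 g/h in a 0.5% Tween 20 acetone/water vehicle. Percent damage, scored 1–5, was read 13 days later.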

Setaria faberi (SETFA) [2] = assay: Pre-emergence herbicidal glasshouse test on Setaria faberi; conditions: pre-emergence; 1000 g/h; evaluated after 13 days
How it was run: as §1

Solanum nigrum (SOLNI) [3] = assay: Post-emergence herbicidal glasshouse test on Solanum nigrum; conditions: post-emergence; 1000 g/h; evaluated after 13 days
How it was run: as §1

[4] = tested on: Ipomoea hederacea (IPOHE); assay: Pre-emergence herbicidal glasshouse test on Ipomoea hederacea; conditions: pre-emergence; 1000 g/h; evaluated after 13 days
How it was run: as §1

[5] = tested on: Echinochloa crus-galli (ECHCG); assay: Pre-emergence herbicidal glasshouse test on Echinochloa crus-galli; conditions: pre-emergence; 1000 g/h; evaluated after 13 days
How it was run: as §1

[6] = tested on: Amaranthus retoflexus (AMARE); assay: Post-emergence herbicidal glasshouse test on Amaranthus retoflexus; conditions: post-emergence; 1000 g/h; evaluated after 13 days
How it was run: as §1

Solanum nigrum (SOLNI) [7] = assay: Pre-emergence herbicidal glasshouse test on Solanum nigrum; conditions: pre-emergence; 1000 g/h; evaluated after 13 days
How it was run: as §1

Setaria faberi (SETFA) [8] = assay: Post-emergence herbicidal glasshouse test on Setaria faberi; conditions: post-emergence; 1000 g/h; evaluated after 13 days
How it was run: as §1

[9] = tested on: Alopecurus myosuroides (ALOMY); assay: Pre-emergence herbicidal glasshouse test on Alopecurus myosuroides; conditions: pre-emergence; 1000 g/h; evaluated after 13 days
How it was run: as §1

[10] = tested on: Amaranthus retoflexus (AMARE); assay: Pre-emergence herbicidal glasshouse test on Amaranthus retoflexus; conditions: pre-emergence; 1000 g/h; evaluated after 13 days
How it was run: as §1

[11] = tested on: Echinochloa crus-galli (ECHCG); assay: Post-emergence herbicidal glasshouse test on Echinochloa crus-galli; conditions: post-emergence; 1000 g/h; evaluated after 13 days
How it was run: as §1

[12] = tested on: Ipomoea hederacea (IPOHE); assay: Post-emergence herbicidal glasshouse test on Ipomoea hederacea; conditions: post-emergence; 1000 g/h; evaluated after 13 days
How it was run: as §1

Row | SMILES | POST Application ALOMY herbicidal damage (five point scale) [1] | PRE Application SETFA herbicidal damage (five point scale) (Setaria faberi (SETFA) [2]) | POST Application SOLNI herbicidal damage (five point scale) (Solanum nigrum (SOLNI) [3]) | PRE Application IPOHE herbicidal damage (five point scale) [4] | PRE Application ECHCG herbicidal damage (five point scale) [5] | POST Application AMARE herbicidal damage (five point scale) [6] | PRE Application SOLNI herbicidal damage (five point scale) (Solanum nigrum (SOLNI) [7]) | POST Application SETFA herbicidal damage (five point scale) (Setaria faberi (SETFA) [8]) | PRE Application ALOMY herbicidal damage (five point scale) [9] | PRE Application AMARE herbicidal damage (five point scale) [10] | POST Application ECHCG herbicidal damage (five point scale) [11] | POST Application IPOHE herbicidal damage (five point scale) [12]
1 | Cn1ncc(-n2ccc(O)c(C#N)c2=O)c(O)c1=O [Compound 1.066] | 2 (2=20-39% damage) | 1 (1=0-19% damage) | 3 (3=40-59% damage) | 5 (5=80-100% damage) | 2 (2=20-39% damage) | 1 (1=0-19% damage) | 4 (4=60-79% damage) | 1 (1=0-19% damage) | 3 (3=40-59% damage) | 4 (4=60-79% damage) | 1 (1=0-19% damage) | 2 (2=20-39% damage)
2 | Cc1nc(C(F)(F)F)ccc1-c1cnn(C)c(=O)c1O [Compound 1.067] | 2 (2=20-39% damage) | 1 (1=0-19% damage) | 5 (5=80-100% damage) | 2 (2=20-39% damage) | 5 (5=80-100% damage) | 5 (5=80-100% damage) | 3 (3=40-59% damage) | 4 (4=60-79% damage) | 1 (1=0-19% damage) | 4 (4=60-79% damage) | 5 (5=80-100% damage) | 5 (5=80-100% damage)
3 | Cc1nc(C(C)F)ccc1-c1cnn(C)c(=O)c1O (stereo not drawn) [Compound 1.068] | 3 (3=40-59% damage) | 2 (2=20-39% damage) | 5 (5=80-100% damage) | 3 (3=40-59% damage) | 5 (5=80-100% damage) | 5 (5=80-100% damage) | 4 (4=60-79% damage) | 3 (3=40-59% damage) | 2 (2=20-39% damage) | 4 (4=60-79% damage) | 5 (5=80-100% damage) | 5 (5=80-100% damage)
4 | Cn1ncc(-n2ccc3ccccc3c2=O)c(O)c1=O [Compound 1.069] | 2 (2=20-39% damage) | 2 (2=20-39% damage) | 4 (4=60-79% damage) | 4 (4=60-79% damage) | 5 (5=80-100% damage) | 5 (5=80-100% damage) | 2 (2=20-39% damage) | 1 (1=0-19% damage) | 1 (1=0-19% damage) | 2 (2=20-39% damage) | 5 (5=80-100% damage) | 4 (4=60-79% damage)
5 | COc1cccn(-c2cnn(C)c(=O)c2O)c1=O [Compound 1.070] | 1 (1=0-19% damage) | 1 (1=0-19% damage) | 4 (4=60-79% damage) | 1 (1=0-19% damage) | 1 (1=0-19% damage) | 3 (3=40-59% damage) | 1 (1=0-19% damage) | 4 (4=60-79% damage) | 1 (1=0-19% damage) | 1 (1=0-19% damage) | 4 (4=60-79% damage) | 1 (1=0-19% damage)
6 | Cn1ncc(-c2ccc(C#N)cc2C(F)(F)F)c(O)c1=O [Compound 1.071] | 3 (3=40-59% damage) | 4 (4=60-79% damage) | 5 (5=80-100% damage) | 2 (2=20-39% damage) | 5 (5=80-100% damage) | 5 (5=80-100% damage) | 5 (5=80-100% damage) | 4 (4=60-79% damage) | 4 (4=60-79% damage) | 5 (5=80-100% damage) | 5 (5=80-100% damage) | 5 (5=80-100% damage)
7 | COCCOCc1nc(C(F)(F)F)ccc1-c1cnn(C)c(=O)c1O [Compound 1.072] | 4 (4=60-79% damage) | 5 (5=80-100% damage) | 5 (5=80-100% damage) | 5 (5=80-100% damage) | 5 (5=80-100% damage) | 5 (5=80-100% damage) | 5 (5=80-100% damage) | 5 (5=80-100% damage) | 4 (4=60-79% damage) | 5 (5=80-100% damage) | 5 (5=80-100% damage) | 5 (5=80-100% damage)
8 | COCc1nc(C(F)(F)F)ccc1-c1cnn(C)c(=O)c1O [Compound 1.073] | 4 (4=60-79% damage) | 5 (5=80-100% damage) | 5 (5=80-100% damage) | 2 (2=20-39% damage) | 5 (5=80-100% damage) | 5 (5=80-100% damage) | 5 (5=80-100% damage) | 5 (5=80-100% damage) | 5 (5=80-100% damage) | 5 (5=80-100% damage) | 5 (5=80-100% damage) | 5 (5=80-100% damage)
9 | Cn1ncc(-c2cc3cc(F)cnc3n(-c3ccsc3)c2=O)c(O)c1=O [Compound 1.074] | 2 (2=20-39% damage) | 1 (1=0-19% damage) | 5 (5=80-100% damage) | 1 (1=0-19% damage) | 4 (4=60-79% damage) | 5 (5=80-100% damage) | 1 (1=0-19% damage) | 5 (5=80-100% damage) | 2 (2=20-39% damage) | 5 (5=80-100% damage) | 5 (5=80-100% damage) | 5 (5=80-100% damage)
